How the values were obtained:
[1] = Dose proportionality and linearity of oxycodone (Example 34); format: in vivo, human; conditions: CR OC/APAP; for AUC0-inf vs dose, Slope / AUC0-inf vs dose, y-Intercept / Cmax vs dose, Slope / Cmax vs dose, y-Intercept: linearity; for Dose-normalized AUC0-inf vs dose, Slope / Dose-normalized AUC0-inf vs dose, y-Intercept / Dose-normalized Cmax vs dose, Slope / Dose-normalized Cmax vs dose, y-Intercept: proportionality
Experimental: Data were pooled from randomized, crossover, single- and multiple-dose studies conducted in healthy adults (aged 18-55 years) to evaluate the dose proportionality and dose linearity of the oxycodone component of CR OC/APAP when administered as 1, 2, or 4 tablets (7.5 mg, 15 mg, or 30 mg oxycodone, respectively). […] (See selected example from Chart No. 1)
The following treatments were administered under fasted conditions: • Single-dose studies: 1, 2, or 4 tablets of CR OC/APAP (7.5 mg, 15 mg, or 30 mg oxycodone, respectively) (see selected example from Chart No. 1) administered orally once • Multiple-dose studies: 1 or 2 tablets of CR OC/APAP (7.5 mg or 15 mg oxycodone, respectively) (see selected example from Chart No. 1) administered every 12 hours for 4.5 days (9 doses)
(§1) One single-dose study (highest dosage) enrolled healthy recreational drug users; all other studies enrolled healthy subjects with specific exclusions for drug use.
(§2) Area under the plasma oxycodone concentration-time curve from time 0 extrapolated to infinity (AUC0-inf) and maximum plasma concentration (Cmax)) were compared across dose levels of CR OC/APAP. […] For a linear PK system, the measures of exposure, such as maximal blood concentration (Cmax) or area under the curve from 0 to infinity (AUC) on the y-axis, are linearly (i.e., by a straight line) related to dose on the x-axis. Dose proportionality for CR OC/APAP was assessed; dose proportionality occurs when increases in the administered dose are accompanied by proportional increases in a measure of exposure, such as AUC or Cmax.
(§3) AUC0-inf and Cmax were divided by dose (dose-normalized) for dose proportionality analyses. Dose normalization (calculated as plasma concentration divided by dose) was utilized to compare concentration across different dosage strengths. Dose linearity and proportionality were determined using linear regression of non-transformed data, including 95% confidence intervals (CIs) and 95% prediction limits. Slope, y-intercept, and R^2 were calculated. The slope and the intercept together define the linear relationship between dose and AUC, or dose and Cmax. The coefficient of determination, R^2, represents the proportion of variability in a data set that is accounted for by a statistical model.

[2] = Dose proportionality and linearity of acetaminophen (Example 33); format: in vivo, human; conditions: CR OC/APAP; for AUC0-inf vs dose, Slope / AUC0-inf vs dose, y-Intercept / Cmax vs dose, Slope / Cmax vs dose, y-Intercept: linearity; for Dose-normalized AUC0-inf vs dose, Slope / Dose-normalized AUC0-inf vs dose, y-Intercept / Dose-normalized Cmax vs dose, Slope / Dose-normalized Cmax vs dose, y-Intercept: proportionality
Text: (See selected example from Chart No. 1)
as §1
as §2, with “APAP” for “oxycodone”
as §3

COc1ccc2c3c1O[C@H]1C(=O)CC[C@@]4(O)[C@@H](C2)N(C)CC[C@]314 [Oxycodone]
AUC0-inf vs dose, Slope ([1]; Multiple-Dose): 14.151 | AUC0-inf vs dose, y-Intercept ([1]; Multiple-Dose): −3.774 | Cmax vs dose, Slope ([1]; Multiple-Dose): 1.640 | Cmax vs dose, y-Intercept ([1]; Multiple-Dose): 0.362 | AUC0-inf vs dose, Slope ([1]; Single-Dose): 11.093 | AUC0-inf vs dose, y-Intercept ([1]; Single-Dose): 7.202 | Cmax vs dose, Slope ([1]; Single-Dose): 1.050 | Cmax vs dose, y-Intercept ([1]; Single-Dose): −0.417 | Dose-normalized AUC0-inf vs dose, Slope ([1]; Multiple-Dose): 0.033 | Dose-normalized AUC0-inf vs dose, y-Intercept ([1]; Multiple-Dose): 13.397 | Dose-normalized Cmax vs dose, Slope ([1]; Multiple-Dose): −0.003 | Dose-normalized Cmax vs dose, y-Intercept ([1]; Multiple-Dose): 1.712 | Dose-normalized AUC0-inf vs dose, Slope ([1]; Single-Dose): −0.024 | Dose-normalized AUC0-inf vs dose, y-Intercept ([1]; Single-Dose): 12.015 | Dose-normalized Cmax vs dose, Slope ([1]; Single-Dose): −0.001 | Dose-normalized Cmax vs dose, y-Intercept ([1]; Single-Dose): 1.041

CC(=O)Nc1ccc(O)cc1 [acetaminophen]
AUC0-inf vs dose, Slope ([2]; Multiple-Dose): 40.177 | AUC0-inf vs dose, y-Intercept ([2]; Multiple-Dose): 2249.134 | Cmax vs dose, Slope ([2]; Multiple-Dose): 7.079 | Cmax vs dose, y-Intercept ([2]; Multiple-Dose): 816.140 | AUC0-inf vs dose, Slope ([2]; Single-Dose): 41.021 | AUC0-inf vs dose, y-Intercept ([2]; Single-Dose): 4024.292 | Cmax vs dose, Slope ([2]; Single-Dose): 6.336 | Cmax vs dose, y-Intercept ([2]; Single-Dose): 467.019 | Dose-normalized AUC0-inf vs dose, Slope ([2]; Multiple-Dose): −0.011 | Dose-normalized AUC0-inf vs dose, y-Intercept ([2]; Multiple-Dose): 50.557 | Dose-normalized Cmax vs dose, Slope ([2]; Multiple-Dose): −0.004 | Dose-normalized Cmax vs dose, y-Intercept ([2]; Multiple-Dose): 10.845 | Dose-normalized AUC0-inf vs dose, Slope ([2]; Single-Dose): −0.007 | Dose-normalized AUC0-inf vs dose, y-Intercept ([2]; Single-Dose): 52.943 | Dose-normalized Cmax vs dose, Slope ([2]; Single-Dose): −0.001 | Dose-normalized Cmax vs dose, y-Intercept ([2]; Single-Dose): 7.877
